One experiment deals with Haemonchus contortus. In words: Activity against Haemonchus contortus (LD99). Particulars: dose required to kill 99% of the sample of Haemonchus contortus. The source says: (§1) Exemplified compounds of Formula 1 are listed by Tables 1a and 1b, above. The activity of these compounds against Haemonchus contortus and cat fleas (Ctenocephalides felis) is summarized by Table 7, below.
The LD99 value is the dose, expressed as μg/ml, that was required to kill 99% of the sample of Haemonchus contortus.

The subject of experiment [1] is cat fleas (Ctenocephalides felis). In words: Contact activity against cat fleas (LC50, % kill). The following applies: for % Kill: percent of a sample of cat fleas killed at a concentration of 1.26 μg/cm^2; for pest or weed control at 1.26 µg/cm2, 1.26 µg/cm2: Ctenocephalides felis, read-out: % Kill.
From the text: as §1

The term EC99 denotes the concentration needed for an effect of 99%.

`N#C/C(=C\c1ccc[nH]1)c1ccccc1Br` [Compound 38] yielded an LD99 with Haemonchus contortus of 3.25 µg/mL. Also, in experiment [1], the “% Kill” value is 30%.

The molecule `N#C/C(=C\c1ccc[nH]1)c1cccc(Br)c1` [Compound 39] gave an LD99 in the experiment with Haemonchus contortus of 0.938 µg/mL. The “% Kill” value in experiment [1] is 24%.

For the molecule `N#C/C(=C\c1ccc[nH]1)c1ccc([N+](=O)[O-])cc1` [Compound 40], the LD99 result in the experiment with Haemonchus contortus was “— (the symbol ‘—’ indicates tested but inactive up to 15 μg/ml)”. Also, in experiment [1], the “% Kill” value was found to be 6%.

`N#C/C(=C\c1ccc[nH]1)c1ccc(F)c(F)c1` [Compound 47]: in the experiment with Haemonchus contortus, the LD99 amounted to 0.75 µg/mL. Also, in experiment [1], the “% Kill” value came to 17%.

In the case of `N#C/C(=C\c1ccc[nH]1)c1ccc(Cl)cc1F` [Compound 48], the LD99 in the experiment with Haemonchus contortus was 2.5 µg/mL. The “% Kill” value in experiment [1] worked out at 5%.

Turning to `CCOCn1cccc1/C=C(\C#N)c1ccccc1F` [Compound 55], the LD99 result with Haemonchus contortus is “— (the symbol ‘—’ indicates tested but inactive up to 15 μg/ml)”. Besides, in experiment [1], the “% Kill” value is 10%.

Take `CCOCn1cccc1/C=C(\C#N)c1ccc(F)cc1F` [Compound 60]: the LD99 entry in the experiment on Haemonchus contortus is “— (the symbol ‘—’ indicates tested but inactive up to 15 μg/ml)”. Also, the “% Kill” value in experiment [1] is on record as 19%.

Turning to `CCOCn1cccc1/C=C(\C#N)c1ccc(C)cc1` [Compound 64], the LD99 result with Haemonchus contortus is “— (the symbol ‘—’ indicates tested but inactive up to 15 μg/ml)”. In experiment [1], the “% Kill” value is 20%.

As to `N#C/C(=C\c1ccc[nH]1)c1ccc2ccccc2c1` [Compound 66, 2-(2-naphthyl)-3-(1H-pyrrol-2-yl)acrylonitrile], in the experiment with Haemonchus contortus, the 99% effect level (EC99) was put at 2.5 µg/mL. In addition, the pest or weed control at 1.26 µg/cm2, 1.26 µg/cm2 in experiment [1] is 28%.

For `N#C/C(=C\c1ccc[nH]1)c1c(F)cccc1Cl` [Compound 67], in the experiment with Haemonchus contortus, the LD99 result is “— (the symbol ‘—’ indicates tested but inactive up to 15 μg/ml)”. Also, the “% Kill” value in experiment [1] was 7%.

Take `N#C/C(=C\c1ccc[nH]1)c1cc(C(F)(F)F)cc(C(F)(F)F)c1` [Compound 68]: the LD99 entry in the experiment with Haemonchus contortus is “— (the symbol ‘—’ indicates tested but inactive up to 15 μg/ml)”. Moreover, the “% Kill” value in experiment [1] was determined as 27%.

In the experiment with Haemonchus contortus, `N#C/C(=C\c1ccc[nH]1)c1ccc(F)cc1F` [Compound 69] gave an LD99 of 2.5 µg/mL. Also, the “% Kill” value in experiment [1] stood at 5%.

Consider `N#C/C(=C\c1ccc[nH]1)c1c(F)cccc1F` [Compound 70], for which the LD99 with Haemonchus contortus was 7.5 µg/mL. Besides, the “% Kill” value in experiment [1] came to 17%.

Consider `N#C/C(=C\c1ccc[nH]1)c1cccc(Oc2ccccc2)c1` [Compound 71], for which the LD99 in the experiment on Haemonchus contortus worked out at 3.25 µg/mL. The “% Kill” value in experiment [1] worked out at 10%.

As to `Cc1cccc(/C(C#N)=C/c2ccc[nH]2)c1` [Compound 72], the LD99 with Haemonchus contortus amounted to 1.25 µg/mL. The “% Kill” value in experiment [1] is given as 42%.

In the experiment with Haemonchus contortus, `N#C/C(=C\c1ccc[nH]1)c1ccc(F)c(Br)c1` [Compound 73] displayed an LD99 of 0.469 µg/mL. For the same molecule, the “% Kill” value in experiment [1] was 7%.

Molecule `N#C/C(=C\c1ccc[nH]1)c1ccc(F)cc1Cl` [Compound 74] yielded an LD99 with Haemonchus contortus of 3 µg/mL. Also, the “% Kill” value in experiment [1] turned out to be 30%.

Take `CCc1ccc(/C(C#N)=C/c2ccc[nH]2)cc1` [Compound 75]: in the experiment with Haemonchus contortus, the LD99 stood at 0.875 µg/mL. For the same molecule, the “% Kill” value in experiment [1] is listed as 58%.

`CCC(=O)n1cccc1/C=C(\C#N)c1ccc(Cl)cc1` [Compound 76, (Z)-2-(4-Chlorophenyl)-3-(1-propanoyl-1H-pyrrol-2-yl)acrylonitrile] registered a concentration for an effect of 99% (EC99) with Haemonchus contortus of 0.375 µg/mL. Moreover, the pest or weed control at 1.26 µg/cm2, 1.26 µg/cm2 in experiment [1] is 12%.

With `N#C/C(=C\c1cccn1Cc1ccccc1)c1ccc(Cl)cc1` [Compound 77], the LD99 in the experiment on Haemonchus contortus came out at 14 µg/mL. For the same molecule, the “% Kill” value in experiment [1] came out at 3%.

In turn, `CCN(CC)C(=O)n1cccc1/C=C(\C#N)c1ccc(Cl)cc1` [Compound 78] registered an LD99 with Haemonchus contortus of 3.5 µg/mL. The “% Kill” value in experiment [1] is 8%.

`CC(C)(C)OC(=O)n1cccc1/C=C(\C#N)c1ccc(Cl)cc1` [Compound 79] had an LD99 with Haemonchus contortus of 3.75 µg/mL. The “% Kill” value in experiment [1] was 9%.

The molecule `N#C/C(=C\c1ccc[nH]1)c1ccc(F)c(Cl)c1` [Compound 81] showed an LD99 in the experiment on Haemonchus contortus of 1.25 µg/mL. In addition, the “% Kill” value in experiment [1] is 5%.

For the molecule `N#C/C(=C\c1cccn1C(=O)c1ccccc1)c1ccc(Cl)cc1` [Compound 82], the LD99 in the experiment on Haemonchus contortus is 1.25 µg/mL. Besides, in experiment [1], the “% Kill” value amounted to 6%.

Molecule `CN(C)C(=S)n1cccc1/C=C(\C#N)c1ccc(Cl)cc1` [Compound 84] registered an LD99 with Haemonchus contortus of 10 µg/mL. Moreover, the “% Kill” value in experiment [1] worked out at 19%.

Molecule `COC(=O)n1cccc1/C=C(\C#N)c1ccc(Cl)cc1` [Compound 85] yielded an LD99 with Haemonchus contortus of 1.25 µg/mL. In addition, the “% Kill” value in experiment [1] is 16%.

`N#C/C(=C\c1cccn1C(=O)OCc1ccccc1)c1ccc(Cl)cc1` [Compound 86] showed an LD99 in the experiment on Haemonchus contortus of 5.5 µg/mL. Further, the “% Kill” value in experiment [1] is on record as 20%.

On to `CC(C)c1ccc(/C(C#N)=C/c2ccc[nH]2)cc1` [Compound 87], for which, in the experiment with Haemonchus contortus, the LD99 entry is “— (the symbol ‘—’ indicates tested but inactive up to 15 μg/ml)”. In addition, the “% Kill” value in experiment [1] amounted to 100%.

In the case of `Cc1ccc(/C(C#N)=C/c2ccc[nH]2)c(C)c1` [Compound 88], the LD99 entry with Haemonchus contortus is “— (the symbol ‘—’ indicates tested but inactive up to 15 μg/ml)”. The “% Kill” value in experiment [1] was determined as 44%.
